Consider seven compounds from PMC6272685, “Docking and Antiherpetic Activity of 2-Aminobenzo[de]-isoquinoline-1,3-diones” (Molecules, 2015).

Converted amounts (≈) assume the structure as drawn. Where two headings read alike, the source gives them in different places.

The nature of data set [1]: cytotoxicity evaluation using viability assay (crystal violet). The format is cell-based, African green monkey. The settings on record: African green monkey, Vero cells. On the procedure:
(§1) Vero cells (derived from the kidney of a normal African green monkey) were obtained from the American Type Culture Collection (ATCC, Manassas, VA, USA). The viral strains used were GHSV-UL46 for HSV-1 and the G strain for HSV-2. The Vero cells were propagated in Dulbecco’s modified Eagle’s medium (DMEM) supplemented with 10% heat-inactivated foetal bovine serum (FBS), 1% L-glutamine, HEPES buffer and 50 µg/mL gentamycin. All cells were maintained at 37 °C in a humidified atmosphere with 5% CO2 and were subcultured two times a week.
(§2) The Vero cell lines in the cytotoxicity assay were seeded in 96-well plates at a cell concentration of 1 × 10^4 cells per well in 100 µL of the growth medium. Fresh medium containing different concentrations of the tested sample was added after 24 h of seeding. Serial two-fold dilutions of the tested compound were added to confluent cell monolayers dispensed into 96-well, flat-bottomed microtiter plates (Falcon, Jersey, NJ, USA) using a multichannel pipette. The microtiter plates were incubated at 37 °C in a humidified incubator with 5% CO2 for a period of 48 h. Three wells were used for each concentration of the tested sample. Control cells were incubated without test samples and with or without DMSO. The small percentage of DMSO present in the wells (maximal 0.1%) was not found to affect the experiment.
(§3) After the end of the incubation period, the viable cell yield was determined by a colorimetric method. In brief, the process of treatment the media with crystal violet solution and measurement of absorbance at 590 nm using a microplate reader was mentioned above. The absorbance was proportional to the number of surviving cells in the culture plate. All the results were corrected for background absorbance detected in wells without added stain. Treated samples were compared with the cell control in the absence of the tested compounds. All experiments were carried out in triplicate. The cell cytotoxicity effect of each tested compound was calculated.
(§4) Statistics were done using a one-way ANOVA test, and the percentage cell viability was calculated using Microsoft Excel®, as follows: % Cell viability = [(Mean Abscontrol− Mean Abstest metabolite)/Mean Abscontrol] × 100 where Abs equals the absorbance at 590 nm. The CC50 was estimated from graphic plots and the STATA statistical analysis package was used for the drawing of the dose response curve, in order to calculate CC50. Concerning antiviral evaluation, all experiments and data analysis were performed in RCMB, Al-Azhar University, Cairo, Egypt.

Data set [2] has as its system HSV-2. The data set is described as follows: cytopathic effect inhibition assay against HSV-2 in Vero cells. The data set is classed as cell-based, herpes simplex virus 2 (G strain). Particulars: for EC50 / HSV-2 EC50: 48 h; for EC50: read-out: HSV-2 EC50; for HSV-2 SI: ratio of CC50 to EC50. The procedure: as §1
(§5) The antiviral screening was performed using a cytopathic effect inhibition assay at the Regional Center for Mycology and Biotechnology (RCMB, Al-Azhar University, Cairo, Egypt). This assay was selected to show specific inhibition of a biological function, that is, a cytopathic effect in susceptible mammalian cells. In brief, monolayers of 10,000 Vero cells adhering at the bottom of the wells in a 96-well microtiter plate were incubated for 24 h at 37 °C in a humidified incubator with 5% CO2. The plates were washed with fresh DMEM and challenged with 10^4 doses of herpes simplex 1 or 2 virus, and then the cultures were simultaneously treated with two-fold serial dilutions of the tested compound, starting from 500 µg/mL and going up to about 2 µg/mL (500, 250, 125, 62.5, …, 1.95 µg/mL) in a fresh maintenance medium; following this, they were incubated at 37 °C for 48 h. An infection control, as well as an untreated Vero cell control were made in the absence of tested compounds. […] Antiviral activity was determined by the inhibition of the cytopathic effect compared to a control, that is, the protection offered by the tested compound to the cells was scored. Three independent experiments were assessed, each containing four replicates per treatment.
(§6) After the incubation period, the media was aspirated, and then the cells were stained with a 1% crystal violet solution for 30 min. Thereafter, all excess stain was removed by rinsing the plates with tap water. The plates were allowed to dry, and then glacial acetic acid (30%) was added to all wells and mixed thoroughly. The absorbance of the plates was measured after gentle shaking on a microplate reader (Tecan Inc., Morrisville, NC, USA), at 590 nm. The viral inhibition rate was calculated as follows: [(ODtv − ODcv)/(ODcd − ODcv)] × 100% where ODtv, ODcv and ODcd indicate the absorbance of the tested compounds with virus-infected cells, the absorbance of the virus control and the absorbance of the cell control, respectively.
EC50 values were determined directly from the curve obtained by plotting the inhibition of the virus yield against the concentration of the samples. The selectivity index (SI) was calculated from the ratio of CC50 to EC50 in order to determine whether each compound had sufficient antiviral activity that exceeded its level of toxicity. This index is referred to as a therapeutic index, and it was also used to determine whether a compound warranted further study.
A general note: Protection from cytopathic effect is a common read-out in antiviral testing.

The test system of data set [3] is HSV-1. The data set is described as follows: cytopathic effect inhibition assay against HSV-1 in Vero cells. The format is cell-based, herpes simplex virus 1 (GHSV-UL46). The settings on record: for EC50: Human alphaherpesvirus 1, Vero, read-out: HSV-1 EC50; for EC50 / HSV-1 EC50: 48 h; for HSV-1 EC50: Vero cells, cytopathic effect inhibition; for antiviral activity against HSV-1 in words: in comparison with compounds 14–16; for HSV-1 SI: ratio of CC50 to EC50. On the procedure: as §1, §5, §6
EC50 values were determined directly from the curve obtained by plotting the inhibition of the virus yield against the concentration of the samples. […] This index is referred to as a therapeutic index, and it was also used to determine whether a compound warranted further study.

The test system of data set [4] is Vero cells. Briefly: cytotoxicity evaluation using viability assay (crystal violet). The settings on record: 48 h. The format is cell-based, African green monkey. The procedure:
as §1, §2, §3, §4

The mark [5] stands for this setting: Vero cells, cytopathic effect inhibition.

What is called CC50 is the concentration at which the toxic effect on the cells reaches its halfway point. A low value points to greater toxicity to the cells. One may read the EC50 as the concentration that produces a half-maximal response.

For the compound `Nc1nc2c(ncn2COCCO)c(=O)[nH]1` [Acyclovir, reference compound], the half-maximal cytotoxic concentration (CC50) at 48 h in data set [1] was determined as 600 ± 18 µg/mL (≈ 2660 µM). In addition, the concentration giving a half-maximal response (EC50) in data set [2] (Human alphaherpesvirus 2, Vero cells, cytopathic effect inhibition) was determined as 3.4 ± 0.6 µg/mL (≈ 15.1 µM); in data set [3], 1.8 ± 0.2 µg/mL (≈ 7.99 µM).
On to `O=C1C=CC(=O)N1N1C(=O)c2cccc3cccc(c23)C1=O` [Compound 20], for which, in data set [4], the CC50 came to 220 ± 16 µg/mL (≈ 753 µM). Besides, the “HSV-2 EC50” value in data set [2] (setting [5]) was more than 500 µg/mL. The “HSV-1 EC50” value in data set [3] was more than 500 µg/mL.
The compound `O=C1c2ccccc2C(=O)N1N1C(=O)c2cccc3cccc(c23)C1=O` [Compound 21] displayed a CC50 in data set [4] of 490 ± 21 µg/mL (≈ 1430 µM). In data set [2] (setting [5]), the “HSV-2 EC50” value is 374 ± 3.7 µg/mL. In addition, the “antiviral activity against HSV-2 in words” value in data set [2] (in comparison with compounds 14–16) is on record as “low activity”. In addition, the “HSV-2 SI” value in data set [2] amounted to 1.3. In addition, in data set [3], the “HSV-1 EC50” value was 102 ± 5.8 µg/mL, the “antiviral activity against HSV-1 in words” value is “good antiviral effect” and the “HSV-1 SI” value is on record as 4.8.
Compound `O=C1c2cccc3cccc(c23)C(=O)N1N1C(=O)c2cccc3cccc(c23)C1=O` [Compound 22] returned a CC50 in data set [4] of 560 ± 46 µg/mL (≈ 1430 µM). Further, the “HSV-2 EC50” value in data set [2] (setting [5]) was 428 ± 10.2 µg/mL. Further, in data set [2], the “HSV-2 SI” value stood at 1.3. Besides, in data set [3], the “HSV-1 EC50” value came to 74.6 ± 3.4 µg/mL, the “antiviral activity against HSV-1 in words” value is “good antiviral effect” and the “HSV-1 SI” value is listed as 7.5.
For the compound `O=C1c2cccc3cccc(c23)C(=O)N1n1c(=O)c2cc3c(=O)oc(=O)c3cc2c1=O` [Compound 23], the half-maximal cytotoxic concentration (CC50) in data set [4] stood at 412 ± 18 µg/mL (≈ 999 µM). The “HSV-2 EC50” value in data set [2] (setting [5]) is more than 500 µg/mL. In data set [3], the “HSV-1 EC50” value turned out to be 176 ± 2.4 µg/mL, the “antiviral activity against HSV-1 in words” value was “low activity” and the “HSV-1 SI” value stood at 2.3.
In data set [4], `O=C1c2cccc3cccc(c23)C(=O)N1n1c(=O)c2cc3c(=O)n(N4C(=O)c5cccc6cccc(c56)C4=O)c(=O)c3cc2c1=O` [Compound 24] came in with a CC50 of 386 ± 17 µg/mL (≈ 636 µM). For the same compound, the “HSV-2 EC50” value in data set [2] (setting [5]) is more than 500 µg/mL. The “HSV-1 EC50” value in data set [3] was more than 500 µg/mL.
In data set [1], `NN1C(=O)c2cccc3cccc(c23)C1=O` [Parent, 2-amino-1H-benzo[de]isoquinoline-1,3-dione] registered a CC50 at 48 h of 320 ± 24 µg/mL (≈ 1510 µM). For the same compound, the EC50 in data set [2] (Human alphaherpesvirus 2, Vero) is more than 500 µg/mL; in data set [3], more than 500 µg/mL.
